Experimental data from publication PMC10941402, “Abcg2a is the functional homolog of human ABCG2 expressed at the zebrafish blood–brain barrier” (Fluids and Barriers of the CNS, 2024).

Columns and labels:
Abcg2d = system: T1, Abcg2d; assay: cells; set-up: species or system HEK-293; CellTiter-Glo growth inhibition of transporter-transfected HEK-293 cells, luminescence; conditions: Homo sapiens, HEK293, 72 h; cells expressing zebrafish Abcg2d
T1 construct: HEK-293 HEK-293 stably expressing full-length FLAG-tagged zebrafish Abcg2d
Description: (§1) Trypsinized cells were plated at 5,000 cells/well in white opaque 96-well plates and allowed to adhere overnight. Drugs were then added, with each concentration tested in triplicate, and cells were incubated for 72 h. Cell growth was assessed using the CellTiter-Glo (Promega, Madison, WI) reagent, according to the manufacturer’s instructions. Luminescence was measured on a Tecan Infinite M200 Pro microplate reader (Tecan Group, Morrisville, NC, RRID:SCR_019033). […] Relative resistance (RR) values are the ratio of the GI50 values of the transporter transfected versus the empty vector-transfected HEK-293 cells. HEK-293 cells (ATCC, Manassas, VA, RRID:CVCL_0045) were transfected with empty pcDNA3.1 vector or with vector containing full-length abcg2a (NM_001042775), abcg2b (NM_001039066), abcg2c (XM_005156523) or abcg2d (NM_001042772) (all from Genscript, Piscataway, NJ), flanked by a C-terminal FLAG tag sequence. The R-5 cell line was generated as previously described from HEK-293 cells transfected with full-length ABCG2 [18]. Transfected cells were cultured at 37 °C and at 5% CO2 in EMEM (Quality Biological, Gaithersburg, MD) supplemented with 10% fetal calf serum, penicillin/streptomycin (Quality Biological) and 2 mg/ml G418 (Mediatech, Manassas, VA). To determine if zebrafish Abcg2a-d were able to confer resistance to known cytotoxic substrates of ABCG2, cytotoxicity assays were performed and quantified by the drug concentration that produces 50% cell growth inhibition (GI50). Among the zebrafish Abcg2 homologs, Abcg2a conferred the highest level of resistance to MLN7243 (a ubiquitin activating enzyme inhibitor), MLN4924 (NEDD8 activating enzyme inhibitor), and CUDC-101 (histone deacetylase and receptor tyrosine kinase inhibitor) (Fig. 2, Additional file 5: Table S1). Abcg2d conferred the least resistance to THZ 531 (CDK12/13 inhibitor), CUDC-101, and gedatolisib (an inhibitor of phosphatidylinositol-3-kinase (PI3K) and mammalian target of rapamycin (mTOR)). […] Abcg2b and Abcg2c often conferred similar levels of resistance to the same substates, as evidenced by results with MLN7243, MLN4924, THZ 531, CUDC-101 and gedatolisib.

ABCG2 [1] = system: T2, ABCG2; assay: cells; set-up: species or system HEK-293; CellTiter-Glo growth inhibition of transporter-transfected HEK-293 cells, luminescence; conditions: HEK293, 72 h; cells expressing human ABCG2
T2 construct: HEK-293 R-5 HEK-293 stably expressing full-length human ABCG2 (R-5)
Description: as §1

Abcg2b [2] = system: T3, Abcg2b; assay: cells; set-up: species or system HEK-293; CellTiter-Glo growth inhibition of transporter-transfected HEK-293 cells, luminescence; conditions: Homo sapiens, HEK293, 72 h; cells expressing zebrafish Abcg2b
T3 construct: HEK-293 HEK-293 stably expressing full-length FLAG-tagged zebrafish Abcg2b
Description: as §1

Abcg2a [3] = system: T4, Abcg2a; assay: cells; set-up: species or system HEK-293; CellTiter-Glo growth inhibition of transporter-transfected HEK-293 cells, luminescence; conditions: Homo sapiens, HEK293, 72 h; cells expressing zebrafish Abcg2a
T4 construct: HEK-293 HEK-293 stably expressing full-length FLAG-tagged zebrafish Abcg2a
Description: as §1

Abcg2c [4] = system: T5, Abcg2c; assay: cells; set-up: species or system HEK-293; CellTiter-Glo growth inhibition of transporter-transfected HEK-293 cells, luminescence; conditions: Homo sapiens, HEK293, 72 h; cells expressing zebrafish Abcg2c
T5 construct: HEK-293 HEK-293 stably expressing full-length FLAG-tagged zebrafish Abcg2c
Description: as §1

Empty vector = system: T6, Empty vector; assay: cells; set-up: species or system HEK-293; CellTiter-Glo growth inhibition of transporter-transfected HEK-293 cells, luminescence; conditions: Homo sapiens, HEK293, 72 h
T6 construct: HEK-293 HEK-293 stably transfected with empty pcDNA3.1
Description: as §1

Abcg2a [5] = molecular target: T7, Abcg2a (Danio rerio, UniProt Q2Q447); assay: flow cytometry efflux assay; type: cell-based; conditions: 5 µM substrate, 37 °C, with and without inhibitor
T7 construct: homodimer
T7 sequence (Q2Q447 1-643): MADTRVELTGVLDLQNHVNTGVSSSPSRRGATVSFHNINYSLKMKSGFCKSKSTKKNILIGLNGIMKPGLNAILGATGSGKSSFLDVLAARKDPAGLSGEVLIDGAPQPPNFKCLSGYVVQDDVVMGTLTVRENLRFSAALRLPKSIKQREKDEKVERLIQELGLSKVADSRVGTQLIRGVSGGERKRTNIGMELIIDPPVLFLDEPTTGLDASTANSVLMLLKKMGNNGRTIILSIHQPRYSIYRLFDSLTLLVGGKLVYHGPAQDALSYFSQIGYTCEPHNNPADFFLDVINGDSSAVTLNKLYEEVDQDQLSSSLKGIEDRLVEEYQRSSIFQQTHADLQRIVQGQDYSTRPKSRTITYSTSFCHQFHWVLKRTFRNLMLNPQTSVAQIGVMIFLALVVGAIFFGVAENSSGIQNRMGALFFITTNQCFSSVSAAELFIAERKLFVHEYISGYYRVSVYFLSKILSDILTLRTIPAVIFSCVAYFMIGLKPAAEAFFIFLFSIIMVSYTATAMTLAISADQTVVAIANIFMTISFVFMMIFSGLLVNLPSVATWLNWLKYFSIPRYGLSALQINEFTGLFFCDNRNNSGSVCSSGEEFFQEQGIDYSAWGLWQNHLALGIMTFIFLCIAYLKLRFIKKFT

Abcg2b [6] = molecular target: T8, Abcg2b (Danio rerio, UniProt Q2Q446); assay: flow cytometry efflux assay; type: cell-based; conditions: 5 µM substrate, 37 °C, with and without inhibitor
T8 construct: homodimer
T8 sequence (Q2Q446 1-618): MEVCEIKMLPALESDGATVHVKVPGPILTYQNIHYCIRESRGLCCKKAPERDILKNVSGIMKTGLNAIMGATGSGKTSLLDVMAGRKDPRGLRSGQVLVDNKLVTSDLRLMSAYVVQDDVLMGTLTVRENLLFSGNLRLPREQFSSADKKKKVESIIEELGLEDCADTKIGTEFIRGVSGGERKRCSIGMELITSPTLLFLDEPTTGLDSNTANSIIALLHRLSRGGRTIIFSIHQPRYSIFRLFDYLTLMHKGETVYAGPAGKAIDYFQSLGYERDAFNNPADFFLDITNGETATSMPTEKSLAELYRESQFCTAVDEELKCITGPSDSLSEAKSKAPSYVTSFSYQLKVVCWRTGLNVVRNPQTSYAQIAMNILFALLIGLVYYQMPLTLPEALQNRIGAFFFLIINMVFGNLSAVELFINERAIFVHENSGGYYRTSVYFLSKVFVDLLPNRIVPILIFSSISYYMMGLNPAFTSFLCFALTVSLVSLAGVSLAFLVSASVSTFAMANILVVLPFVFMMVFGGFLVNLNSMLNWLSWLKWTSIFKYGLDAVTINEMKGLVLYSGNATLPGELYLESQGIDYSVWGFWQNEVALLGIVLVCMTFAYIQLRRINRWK

Abcg2c [7] = molecular target: T9, Abcg2c (Danio rerio, UniProt A0A8M2B3F2); assay: flow cytometry efflux assay; type: cell-based; conditions: 5 µM substrate, 37 °C, with and without inhibitor
T9 construct: homodimer
T9 sequence (A0A8M2B3F2 1-640): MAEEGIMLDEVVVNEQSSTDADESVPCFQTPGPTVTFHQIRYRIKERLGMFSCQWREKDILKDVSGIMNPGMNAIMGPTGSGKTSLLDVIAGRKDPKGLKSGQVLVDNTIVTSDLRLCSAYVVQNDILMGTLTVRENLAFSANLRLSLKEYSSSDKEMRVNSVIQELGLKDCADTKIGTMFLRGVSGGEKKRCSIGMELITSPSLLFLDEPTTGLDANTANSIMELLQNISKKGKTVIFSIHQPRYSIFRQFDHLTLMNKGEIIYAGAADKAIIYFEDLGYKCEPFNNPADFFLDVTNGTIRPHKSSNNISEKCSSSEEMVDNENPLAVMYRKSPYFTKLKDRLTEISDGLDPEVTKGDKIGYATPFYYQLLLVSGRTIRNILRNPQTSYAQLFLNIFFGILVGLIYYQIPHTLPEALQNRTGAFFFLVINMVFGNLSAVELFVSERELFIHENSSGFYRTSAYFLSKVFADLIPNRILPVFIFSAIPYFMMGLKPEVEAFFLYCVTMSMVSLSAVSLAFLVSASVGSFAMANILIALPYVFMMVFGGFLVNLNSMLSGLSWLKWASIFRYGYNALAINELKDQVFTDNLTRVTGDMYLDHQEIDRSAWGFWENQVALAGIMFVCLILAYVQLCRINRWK

ABCG2 [8] = molecular target: T10, ABCG2 (Homo sapiens, UniProt Q9UNQ0); assay: flow cytometry efflux assay; type: cell-based; conditions: 5 µM substrate, 37 °C, with and without inhibitor
T10 construct: homodimer
T10 sequence (Q9UNQ0 1-655): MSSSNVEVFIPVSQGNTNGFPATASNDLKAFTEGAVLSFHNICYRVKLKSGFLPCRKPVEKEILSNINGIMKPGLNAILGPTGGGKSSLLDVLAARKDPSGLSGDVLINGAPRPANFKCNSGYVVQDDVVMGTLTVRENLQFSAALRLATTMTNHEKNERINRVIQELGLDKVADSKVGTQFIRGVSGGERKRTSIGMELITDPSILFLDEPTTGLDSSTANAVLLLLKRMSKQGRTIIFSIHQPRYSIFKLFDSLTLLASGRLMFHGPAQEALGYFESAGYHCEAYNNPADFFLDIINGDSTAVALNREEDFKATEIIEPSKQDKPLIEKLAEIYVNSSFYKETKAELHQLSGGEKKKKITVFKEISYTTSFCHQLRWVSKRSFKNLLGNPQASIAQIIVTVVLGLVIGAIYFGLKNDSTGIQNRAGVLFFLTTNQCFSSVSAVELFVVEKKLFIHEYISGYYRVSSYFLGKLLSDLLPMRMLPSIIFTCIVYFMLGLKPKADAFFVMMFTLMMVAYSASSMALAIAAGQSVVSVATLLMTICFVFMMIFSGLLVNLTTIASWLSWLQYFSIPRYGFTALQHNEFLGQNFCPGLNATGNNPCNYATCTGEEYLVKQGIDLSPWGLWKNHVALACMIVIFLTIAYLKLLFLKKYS

| SMILES | GI50 (Abcg2d) [µM] | GI50 (ABCG2 [1]) [µM] | GI50 (Abcg2b [2]) [µM] | GI50 (Abcg2a [3]) [µM] | GI50 (Abcg2c [4]) [µM] | GI50 (Empty vector) [µM] | flow cytometry efflux assay (Abcg2a [5]) | flow cytometry efflux assay (Abcg2b [6]) | flow cytometry efflux assay (Abcg2c [7]) | flow cytometry efflux assay (ABCG2 [8]) |
| --- | --- | --- | --- | --- | --- | --- | --- | --- | --- | --- |
| C#Cc1cccc(Nc2ncnc3cc(OC)c(OCCCCCCC(=O)NO)cc23)c1 [CUDC-101] | 1.04 ± 0.26 | 11.3 ± 2 | 2.09 ± 0.19 | 5.42 ± 1.4 | 1.69 ± 0.29 | 0.78 ± 0.1 | – | – | – | – |
| CN(C)C1CCN(C(=O)c2ccc(NC(=O)Nc3ccc(-c4nc(N5CCOCC5)nc(N5CCOCC5)n4)cc3)cc2)CC1 [Gedatolicib, gedatolisib] | 0.82 ± 0.5 | 3.84 ± 1.5 | 4.06 ± 1.5 | 1.39 ± 0.19 | 3.26 ± 0.49 | 0.2 ± 0.01 | – | – | – | – |
| NS(=O)(=O)OC[C@@H]1C[C@@H](n2ccc3c(N[C@H]4CCc5ccccc54)ncnc32)C[C@@H]1O [MLN 4924] | 0.353 ± 0.19 | 7.32 ± 1.7 | 0.52 ± 0.052 | 2.44 ± 0.17 | 0.487 ± 0.04 | 0.42 ± 0.09 | – | – | – | – |
| NS(=O)(=O)OC[C@H]1C[C@@H](Nc2ccnc3cc(-c4cccc(SC(F)(F)F)c4)nn23)[C@H](O)[C@@H]1O [MLN 7243] | 0.179 ± 0.023 | 15.4 ± 0.22 | 0.151 ± 0.051 | – | 0.2 ± 0.02 | 0.069 ± 0.005 | – | – | – | – |
| Cc1nc(Nc2[nH]nc3c2CN(C(=O)N[C@H](CN(C)C)c2ccccc2)C3(C)C)c2sccc2n1 [PF-3758309] | 1.54 ± 0.65 | 2.36 ± 0.54 | 0.413 ± 0.15 | 1.26 ± 0.53 | 1.97 ± 0.71 | 0.068 ± 0.03 | – | – | – | – |
| CN(C)C/C=C/C(=O)Nc1ccc(C(=O)N2CCC[C@@H](Nc3ncc(Cl)c(-c4c[nH]c5ccccc45)n3)C2)cc1 [THZ 531] | 3.99 ± 0.24 | 65.9 ± 3.7 | 10.5 | 18.3 ± 3.6 | 11.4 ± 1 | 1.29 ± 0.14 | – | – | – | – |
| O=C1c2c(O)ccc(O)c2C(=O)c2c(NCCNCCO)ccc(NCCNCCO)c21 [mitoxantrone] | – | – | – | – | – | – | rightward inhibited peak shift for Abcg2a with mitoxantrone | – | – | – |
| C=Cc1c(C)c2cc3nc(c4c5[nH]c(cc6nc(cc1[nH]2)C(C)=C6CC)c(C)c5C(=O)[C@@H]4C(=O)OC)[C@@H](CCC(=O)O)[C@@H]3C [pheophorbide a] | – | – | – | – | – | – | to a greater extent with pheophorbide a, indicating Abcg2a can efflux both substrates | Pheophorbide a also appears to be a substrate for Abcg2b and Abcg2c | Pheophorbide a also appears to be a substrate for Abcg2b and Abcg2c | ABCG2-expressing cells exhibit an increase in intracellular fluorescence |
